Laboratory results from ChEMBL document CHEMBL2062395, “Avicholic Acid: A Lead Compound from Birds on the Route to Potent TGR5 Modulators” (ACS Med Chem Lett, 2012).

Experiments:
[1] = Aqueous solubility of the compound in 0.1 M HCl water at […] by HPLC-ES-MS/MS; type: physicochemical
Bile acid receptor = target: T1, Bile acid receptor (Homo sapiens, UniProt Q96RI1); experiment: Agonist activity at GST-tagged FXR-LBD using biotinylated-SRC-1 peptide as substrate preincubated with compound for 30 mins measured after 4 hrs; type: functional
T1 sequence (Q96RI1 whole entry): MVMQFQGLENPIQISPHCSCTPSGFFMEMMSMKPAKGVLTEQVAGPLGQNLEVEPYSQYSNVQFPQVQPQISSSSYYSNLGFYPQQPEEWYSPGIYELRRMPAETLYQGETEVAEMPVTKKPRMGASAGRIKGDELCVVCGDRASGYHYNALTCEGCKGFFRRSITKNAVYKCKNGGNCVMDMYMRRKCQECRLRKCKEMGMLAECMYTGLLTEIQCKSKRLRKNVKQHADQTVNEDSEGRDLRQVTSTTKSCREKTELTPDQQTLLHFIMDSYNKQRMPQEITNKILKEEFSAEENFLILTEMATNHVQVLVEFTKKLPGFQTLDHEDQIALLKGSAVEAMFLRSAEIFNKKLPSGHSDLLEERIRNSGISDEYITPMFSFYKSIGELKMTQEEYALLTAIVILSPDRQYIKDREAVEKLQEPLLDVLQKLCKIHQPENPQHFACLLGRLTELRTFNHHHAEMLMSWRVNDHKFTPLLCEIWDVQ

Albumin = Albumin (Homo sapiens, UniProt P02768); experiment: Binding affinity to albumin by equilibrium dialysis; type: ADME; parameters: concentration or dose not given beside the values; conditions: isolated protein
[2] = target: T2, G-protein coupled bile acid receptor 1 (Homo sapiens, UniProt Q8TDU6); experiment: Agonist activity at TGR5 expressed in NCI-H716 cells assessed as cAMP level after 60 mins by FRET analysis; type: functional, cell-based
T2 sequence (Q8TDU6 whole entry): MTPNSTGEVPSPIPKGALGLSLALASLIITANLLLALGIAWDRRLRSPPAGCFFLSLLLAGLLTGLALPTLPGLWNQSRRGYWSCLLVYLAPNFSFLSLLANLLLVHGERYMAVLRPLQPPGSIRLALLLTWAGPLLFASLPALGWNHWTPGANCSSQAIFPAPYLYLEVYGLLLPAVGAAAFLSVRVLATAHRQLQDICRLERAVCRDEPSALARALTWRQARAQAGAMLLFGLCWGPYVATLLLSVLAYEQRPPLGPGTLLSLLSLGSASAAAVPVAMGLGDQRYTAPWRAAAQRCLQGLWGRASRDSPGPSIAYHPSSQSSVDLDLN

[3] = Critical micelle concentration of the compound in 0.15 M NaCl water solution; type: physicochemical; conditions: buffer
[4] = 1-Octanol/water partition coefficient, log P of the compound by conventional shake-flask method; type: physicochemical
Liver = experiment: Drug metabolism in mouse liver assessed as taurine conjugate formation; type: ADME, tissue-based
[5] = 1-octanol/water, read-out: logP

Albumin, sequence (P02768 whole entry): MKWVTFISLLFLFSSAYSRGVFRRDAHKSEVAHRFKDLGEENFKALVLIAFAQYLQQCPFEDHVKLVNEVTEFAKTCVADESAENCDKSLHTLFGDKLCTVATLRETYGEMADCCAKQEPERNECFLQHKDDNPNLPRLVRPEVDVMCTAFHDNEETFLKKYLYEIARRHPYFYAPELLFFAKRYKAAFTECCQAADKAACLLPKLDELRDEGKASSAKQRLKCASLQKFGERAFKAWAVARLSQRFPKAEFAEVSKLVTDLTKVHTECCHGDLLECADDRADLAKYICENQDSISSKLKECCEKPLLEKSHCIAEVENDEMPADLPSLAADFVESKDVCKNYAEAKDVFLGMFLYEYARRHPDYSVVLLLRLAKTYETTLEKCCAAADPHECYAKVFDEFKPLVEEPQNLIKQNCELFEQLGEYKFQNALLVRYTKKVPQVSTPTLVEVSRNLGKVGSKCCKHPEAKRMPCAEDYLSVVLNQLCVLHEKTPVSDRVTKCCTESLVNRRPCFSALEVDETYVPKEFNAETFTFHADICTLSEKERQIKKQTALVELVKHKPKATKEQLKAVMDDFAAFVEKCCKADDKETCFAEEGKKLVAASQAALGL

| SMILES | solubility [1] | EC50 (Bile acid receptor) | Activity (Albumin) | EC50 [2] | CMC [3] | logP [4, 5] | Drug metabolism (Liver) | logP ([4]; octanol/water) |
| --- | --- | --- | --- | --- | --- | --- | --- | --- |
| C[C@H](CCC(=O)[O-])[C@H]1[C@H](O)C[C@H]2[C@@H]3[C@H](O)C[C@@H]4C[C@H](O)CC[C@]4(C)[C@H]3CC[C@]12C.[Na+] [AVICHOLIC ACID SODIUM SALT] | 188 µM | > 100 µM | 58% | 160 µM | 10 mM | 1.1 | – | – |
| CC[C@H]1[C@@H](O)[C@@H]2[C@H](CC[C@]3(C)[C@@H]([C@H](C)CCC(=O)O)[C@H](O)C[C@@H]23)[C@@]2(C)CC[C@@H](O)C[C@@H]12 | – | 22 µM | – | 87 µM | – | – | – | – |
| CC[C@H]1[C@@H](O)[C@@H]2[C@H](CC[C@]3(C)[C@@H]([C@H](C)CCC(=O)[O-])[C@@H](O)C[C@@H]23)[C@@]2(C)CC[C@@H](O)C[C@@H]12.[Na+] | 120 µM | 11.5 µM | 83% | 0.65 µM | 5.9 mM | 1.6 | Active | – |
| CC[C@H]1[C@@H](O)[C@@H]2[C@H](C[C@H](O)[C@]3(C)[C@@H]([C@H](C)C[C@H](C)C(=O)O)CC[C@@H]23)[C@@]2(C)CC[C@@H](O)C[C@@H]12 | – | – | 62% | – | 2 mM | 1.4 | – | – |
| C[C@H](CCC(=O)O)[C@H]1CC[C@H]2[C@@H]3[C@H](O)C[C@@H]4C[C@H](O)CC[C@]4(C)[C@H]3C[C@H](O)[C@]12C [CHOLIC ACID] | – | – | 50% | – | 9.2 mM | – | – | – |
| C[C@H](CCC(=O)O)[C@H]1CC[C@H]2[C@@H]3[C@H](O)C[C@@H]4C[C@H](O)CC[C@]4(C)[C@H]3CC[C@]12C [CHENODIOL] | – | – | 93% | – | 3 mM | – | – | 2.2 |
| C[C@H](CCC(=O)O)[C@H]1[C@@H](O)C[C@H]2[C@@H]3[C@H](O)C[C@@H]4C[C@H](O)CC[C@]4(C)[C@H]3CC[C@]12C | – | 55 µM | – | 25 µM | – | – | – | – |
